This passage reports Activity results from US7897765B2, “Therapeutic compounds and uses thereof” (Elixir Pharmaceuticals, Inc., priority 2003, dated 2011).

In the assay the target is GHS-R (Homo sapiens, UniProt Q92847). The assay can be described thus: cell based assay of GHS-R antagonist/agonist activity. The arrangement: key: A refers to a compound having antagonist activity with Ki<100 nM in a cell based assay; B refers to a compound having agonist activity with EC50<100 nM in a cell based assay; C refers to a compound having antagonist activity of Ki>100 nM and <1500 nM in a cell based assay; D refers to a compound having antagonist activity with Ki, <100 nM and agonist activity with EC50<100 nM in a cell-based assay; E refers to other exemplary compounds. As to conditions: GHS-R antagonist Ki and/or agonist EC50 class. Here is the method: Cell-Based Activity Assays. For example, the ability of the compound to modulate accumulation of a second messenger signaling component downstream of GHS-R can be evaluated. For example, inositol phosphates (IP), as a result of Gq signaling in a mammalian cell, e.g., a Cos-7 cells. Other tissue culture cells, Xenopus oocytes, and primary cells can also be used.
Sequence of GHS-R (Q92847 whole entry, species assumed): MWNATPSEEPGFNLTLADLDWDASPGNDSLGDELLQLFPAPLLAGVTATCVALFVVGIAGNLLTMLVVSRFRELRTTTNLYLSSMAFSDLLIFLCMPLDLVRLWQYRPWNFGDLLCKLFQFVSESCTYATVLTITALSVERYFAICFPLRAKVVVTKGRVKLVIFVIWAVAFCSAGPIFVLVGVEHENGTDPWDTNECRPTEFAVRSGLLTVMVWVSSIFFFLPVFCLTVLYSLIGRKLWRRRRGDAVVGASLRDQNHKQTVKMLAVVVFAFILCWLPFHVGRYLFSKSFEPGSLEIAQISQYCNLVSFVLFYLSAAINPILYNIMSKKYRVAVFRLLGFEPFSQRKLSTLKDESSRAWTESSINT
Phosphatidylinositol turnover assay. One day after transfection COS-7 cells are incubated for 24 hours with 5 μCi of [^3H]-myo-inositol in 1 ml medium supplemented with 10% fetal calf serum, 2 mM glutamine and 0.01 mg/ml gentamicin per well. Cells are then washed twice in buffer, 20 mM HEPES, pH 7.4, supplemented with 140 mM NaCl, 5 mM KCl, 1 mM MgSO4, 1 mM CaCl2, mM glucose, 0.05% (w/v) bovine serum; and incubated in 0.5 ml buffer supplemented with 10 mM LiCl at 37° C. for 30 min. For some assays, it is also useful to incubate the cells with adenosine deaminase ADA (200 U/mg, Boehringer Mannheim, Germany) for 30 min in a concentration of 1 U/ml.
After incubation with the compound of interest for 45 min at 37° C., cells are extracted with 10% ice-cold perchloric acid and placed on ice for 30 min. The resulting supernatants are neutralized with KOH in HEPES buffer, and [^3H]-inositol phosphate is purified on Bio-Rad AG 1-X8 anion exchange resin as described. Assays can be run in duplicate, triplicate, etc.
Other second messenger assays. Another second messenger that can be evaluated is Ca^2+. Ca^2+ mobilization can be evaluated using a calcium sensitive detector, such as aequorin protein or a dye, e.g., FURA-2. In an exemplary assay, calcium mobilization is evaluated in a recombinant cell that expresses GHS-R and aequorin.
Gene expression assay. HEK293 cells (30 000 cells/well) seeded in 96-well plates are transiently transfected with a mixture of pFA2-CREB and pFR-Luc reporter plasmid (PathDetect™ CREB trans-Reporting System, Stratagene) and nucleic acid encoding GHS. One day after transfection, cells are treated with the compound of interest in an assay volume of 100 μl medium for 5 hrs. After treatment, cells are cultured in low serum (2.5%). After the incubation period, the assay is ended by washing the cells twice with PBS and adding 100 μl luciferase assay reagent (LucLite™, Packard Bioscience). Luminescence is measured (e.g., as relative light units (RLU)) using in a luminometer such as the TopCounter™ (Packard Bioscience) for 5 sec.
IC50 and EC50 values can be determined by nonlinear regression, e.g., using the Prism 3.0 software (GraphPad Software, San Diego).

`CN1CCC[C@H]1C(=O)N[C@H](COCc1ccccc1)C(=O)N1CCC2(CC1)CN(S(C)(=O)=O)c1ccccc12` [Compound 24]: the Activity entry is “C (C refers to a compound having antagonist activity of Ki>100 nM and <1500 nM in a cell based assay)”.
On to `CN([C@H](COCc1ccccc1)C(=O)N1CCC2(CC1)CN(S(C)(=O)=O)c1ccccc12)S(=O)(=O)CCCCl` [Compound 160], for which the Activity entry is given as “E”.
The value for `CN1CCCC(C(=O)N[C@H](COCc2ccccc2)C(=O)N2CCC3(CC2)CN(S(C)(=O)=O)c2ccccc23)C1` (stereo partly shown) [Compound 13] was “A (A refers to a compound having antagonist activity with Ki<100 nM in a cell based assay)”; that for `CN1CCC(S(=O)(=O)N[C@H](COCc2ccccc2)C(=O)N2CCC3(C=Cc4ccccc43)CC2)CC1` [Compound 154] was “C (C refers to a compound having antagonist activity of Ki>100 nM and <1500 nM in a cell based assay)”; that for `CC(C)(C)OC(=O)N[C@H](COCc1ccccc1)C(=O)N1CCC2(CC1)CN(S(=O)(=O)Cc1ccccc1)c1ccccc12` [Compound 67] was “E”.
`CN1CCC(C(=O)N[C@H](CC(=O)N2CCC3(CC2)CN(S(C)(=O)=O)c2ccccc23)Cc2c[nH]c3ccccc23)CC1` [Compound 141]: the Activity entry was “E”.
For `CS(=O)(=O)N1CC2(CCN(C(=O)[C@@H](COCc3ccccc3)NC(=O)NCCCO)CC2)c2ccccc21` [Compound 95] the value was “E”.
The value for `CC(C)CCN1CC=C(C(=O)N[C@H](COCc2ccccc2)C(=O)N2CCC3(CC2)CN(S(C)(=O)=O)c2ccccc23)CC1` [Compound 102] was “E”; that for `CN1CC2(CCN(C(=O)[C@@H](COCc3ccccc3)NC(=O)OC(C)(C)C)CC2)c2ccccc21` [Compound 48] was “C (C refers to a compound having antagonist activity of Ki>100 nM and <1500 nM in a cell based assay)”; that for `Cc1ccc(CSC[C@H](NC(=O)C2CCN(C)CC2)C(=O)N2CCC3(CC2)CN(S(C)(=O)=O)c2ccccc23)cc1` [Compound 140] was “E”.
The value for `CN1CCC(C(=O)N[C@H](COCc2ccccc2)C(=O)N2CCC3(C=Cc4ccccc43)CC2)CC1` [Compound 3] was “A (A refers to a compound having antagonist activity with Ki<100 nM in a cell based assay)”; that for `CN(C)CC(=O)N[C@@H](Cc1ccccc1)C(=O)N1CCC2(CC1)CN(S(C)(=O)=O)c1ccccc12` [Compound 124] was “E”; that for `CN(C)CC(=O)N[C@H](COCc1ccccc1)C(=O)N1CCC2(CC1)CN(C(=O)CO)c1ccccc12` [Compound 75] was “E”.
In the case of `CCN(CCS(=O)(=O)N[C@H](COCc1ccccc1)C(=O)N1CCC2(CC1)CN(S(C)(=O)=O)c1ccccc12)C(C)C` [Compound 101], the Activity entry was “E”.
The value for `CN1CCC(C(=O)N[C@H](COCc2ccccc2)C(=O)N2CCC3(CC2)CN(S(C)(=O)=O)c2ccccc23)C1` (stereo partly shown) [Compound 115] was “E”.
For `CC(C)(C)OC(=O)N[C@H](COCc1ccccc1)C(=O)N1CCC2(C=Cc3ccccc32)CC1` [Compound 30] the value was “C (C refers to a compound having antagonist activity of Ki>100 nM and <1500 nM in a cell based assay)”.
For the compound `CC(=O)OCC(=O)N1CC2(CCN(C(=O)[C@@H](COCc3ccccc3)NC(=O)OC(C)(C)C)CC2)c2ccccc21` [Compound 59], the Activity entry was “E”.
For `CN1CCC(C(=O)N[C@H](CCc2ccccc2)C(=O)N2CCC3(CC2)CN(S(C)(=O)=O)c2ccccc23)CC1` [Compound 136] the value was “E”.
On to `CS(=O)(=O)N1CC2(CCN(C(=O)[C@@H](COCc3ccccc3)NC(=S)Nc3cccnc3)CC2)c2ccccc21` [Compound 86], for which the Activity result was “E”.
For `CC(C)N1CCC=C(C(=O)N[C@H](COCc2ccccc2)C(=O)N2CCC3(CC2)CN(S(C)(=O)=O)c2ccccc23)C1` [Compound 12] the value was “A (A refers to a compound having antagonist activity with Ki<100 nM in a cell based assay)”.
The value for `CS(=O)(=O)N1CC2(CCN(C(=O)C(COCc3ccccc3)NCC3CCNCC3)CC2)c2ccccc21` (stereo not shown) [Compound 104] was “E”; that for `CNCC(=O)N[C@H](COCc1ccccc1)C(=O)N1CCC2(CC1)CN(S(C)(=O)=O)c1ccccc12` [Compound 70] was “E”; that for `CC(C)N1CCC(C(=O)N[C@H](COCc2ccccc2)C(=O)N2CCC3(CC2)CN(S(C)(=O)=O)c2ccccc23)CC1` [Compound 19] was “C (C refers to a compound having antagonist activity of Ki>100 nM and <1500 nM in a cell based assay)”.
For `CS(=O)(=O)N1CC2(CCN(C(=O)[C@@H](COCc3ccccc3)NC(=O)C3(N)CCCC3)CC2)c2ccccc21` [Compound 134] the value was “B (B refers to a compound having agonist activity with EC50<100 nM in a cell based assay)”; for `CN1CC=C[C@H]1C(=O)N[C@H](COCc1ccccc1)C(=O)N1CCC2(CC1)CN(S(C)(=O)=O)c1ccccc12` [Compound 11], “A (A refers to a compound having antagonist activity with Ki<100 nM in a cell based assay)”.
As for `CN(C)CC(=O)NC(C)(C)C(=O)N[C@H](COCc1ccccc1)C(=O)N1CCC2(CC1)CN(S(C)(=O)=O)c1ccccc12` [Compound 127], the Activity result is listed as “B (B refers to a compound having agonist activity with EC50<100 nM in a cell based assay)”.
For `CC(C)N(C)CCS(=O)(=O)N[C@H](COCc1ccccc1)C(=O)N1CCC2(CC1)CN(S(C)(=O)=O)c1ccccc12` [Compound 21] the value was “C (C refers to a compound having antagonist activity of Ki>100 nM and <1500 nM in a cell based assay)”.
For `CN(C)CCNC(=O)N[C@H](COCc1ccccc1)C(=O)N1CCC2(CC1)CN(S(C)(=O)=O)c1ccccc12` [Compound 94] the value was “E”; for `CS(=O)(=O)N1CC2(CCN(C(=O)[C@@H](COCc3ccccc3)NC(=O)C3(N)CCCCC3)CC2)c2ccccc21` [Compound 117], “E”.
The value for `CS(=O)(=O)N1CC2(CCN(C(=O)[C@@H](COCc3ccccc3)NC(=O)C3=CCNCC3)CC2)c2ccccc21` [Compound 16] was “C (C refers to a compound having antagonist activity of Ki>100 nM and <1500 nM in a cell based assay)”; that for `COc1cccc(C(=O)N2CC3(CCN(C(=O)[C@@H](COCc4ccccc4)NC(=O)OC(C)(C)C)CC3)c3ccccc32)c1` [Compound 58] was “E”.
For `CS(=O)(=O)N1CC2(CCN(C(=O)[C@@H](COCc3ccccc3)NC(=O)C3=NCCN3)CC2)c2ccccc21` [Compound 80], the Activity result is listed as “E”.
The value for `CS(=O)(=O)N1CC2(CCN(C(=O)[C@@H](COCc3ccccc3)NS(=O)(=O)CCCN3CCOCC3)CC2)c2ccccc21` [Compound 149] was “E”.
For the compound `CC(C)(C)OC(=O)N1CCC(CNC(COCc2ccccc2)C(=O)N2CCC3(CC2)CN(S(C)(=O)=O)c2ccccc23)CC1` (stereo not shown) [Compound 103], the Activity entry is “E”.
For `CCN(CC)CCCS(=O)(=O)N[C@H](COCc1ccccc1)C(=O)N1CCC2(C=Cc3ccccc32)CC1` [Compound 164] the value was “A (A refers to a compound having antagonist activity with Ki<100 nM in a cell based assay)”; for `C[C@H](N)C(=O)N[C@H](COCc1ccccc1)C(=O)N1CCC2(CC1)CN(S(C)(=O)=O)c1ccccc12` [Compound 78], “E”.
For `CNC(C)(C)C(=O)N[C@H](COCc1ccccc1)C(=O)N1CCC2(CC1)CN(S(C)(=O)=O)c1ccccc12` [Compound 132] the value was “B (B refers to a compound having agonist activity with EC50<100 nM in a cell based assay)”; for `CS(=O)(=O)N1CC2(CCN(C(=O)[C@@H](COCc3ccccc3)NC(=O)CO)CC2)c2ccccc21` [Compound 54], “E”; for `CCN1CCC[C@@H]1CNC(=O)N[C@H](COCc1ccccc1)C(=O)N1CCC2(CC1)CN(S(C)(=O)=O)c1ccccc12` [Compound 96], “E”.
For `CN1CCN(CCS(=O)(=O)N[C@H](COCc2ccccc2)C(=O)N2CCC3(CC2)CN(S(C)(=O)=O)c2ccccc23)CC1` [Compound 46] the value was “C (C refers to a compound having antagonist activity of Ki>100 nM and <1500 nM in a cell based assay)”.
